SMILES strings stand for the structures.

A word on the melting point: it is the temperature, or range, at which the solid turns liquid.

`O=C(Nc1nc(-c2ccco2)c(C(=O)C2CCOCC2)s1)c1ccccc1` [Compound 362, N-[4-(2-Furyl)-5-(tetrahydropyran-4-ylcarbonyl)thiazol-2-yl]benzamide] yielded a melting point of 221 to 222 °C. `Cc1ccccc1C(=O)Nc1nc(-c2ccco2)c(C(=O)C2CCOCC2)s1` [Compound 363, N-[4-(2-Furyl)-5-(tetrahydropyran-4-ylcarbonyl)thiazol-2-yl]-2-methylbenzamide] registered a melting point of 204 to 206 °C.

As for `Cc1cccc(C(=O)Nc2nc(-c3ccco3)c(C(=O)C3CCOCC3)s2)c1` [Compound 364, N-[4-(2-Furyl)-5-(tetrahydropyran-4-ylcarbonyl)thiazol-2-yl]-3-methylbenzamide], the melting point fell in the range of 197 to 201 °C. On to `COc1ccccc1C(=O)Nc1nc(-c2ccco2)c(C(=O)C2CCOCC2)s1` [Compound 366, N-[4-(2-Furyl)-5-(tetrahydropyran-4-ylcarbonyl)thiazol-2-yl]-2-methoxybenzamide], for which the melting point lay within 181 to 184 °C.

In turn, `COc1ccc(C(=O)Nc2nc(-c3ccco3)c(C(=O)C3CCOCC3)s2)cc1` [Compound 368, N-[4-(2-Furyl)-5-(tetrahydropyran-4-ylcarbonyl)thiazol-2-yl]-4-methoxybenzamide] gave a melting point of 184 to 188 °C. As to `CN(C)c1cccc(C(=O)Nc2nc(-c3ccco3)c(C(=O)C3CCOCC3)s2)c1` [Compound 369, 3-(Dimethylamino)-N-[4-(2-furyl)-5-(tetrahydropyran-4-ylcarbonyl)thiazol-2-yl]benzamide], the melting point is 239 to 243 °C. With `CN(C)c1ccc(C(=O)Nc2nc(-c3ccco3)c(C(=O)C3CCOCC3)s2)cc1` [Compound 370, 4-(Dimethylamino)-N-[4-(2-furyl)-5-(tetrahydropyran-4-ylcarbonyl)thiazol-2-yl]benzamide], the melting point was 238 to 240 °C. `O=C(Nc1nc(-c2ccco2)c(C(=O)C2CCOCC2)s1)c1ccccc1F` [Compound 371, 2-Fluoro-N-[4-(2-furyl)-5-(tetrahydropyran-4-ylcarbonyl)-thiazol-2-yl]benzamide] yielded a melting point of 172 to 176 °C. The figure for `O=C(Nc1nc(-c2ccco2)c(C(=O)C2CCOCC2)s1)c1cccc(F)c1` [Compound 372, 3-Fluoro-N-[4-(2-furyl)-5-(tetrahydropyran-4-ylcarbonyl)-thiazol-2-yl]benzamide] is 229 to 231 °C; for `O=C(Nc1nc(-c2ccco2)c(C(=O)C2CCOCC2)s1)c1ccccc1Cl` [Compound 374, 2-Chloro-N-[4-(2-furyl)-5-(tetrahydropyran-4-ylcarbonyl)-thiazol-2-yl]benzamide] it is 160 to 162 °C. The figure for `O=C(Nc1nc(-c2ccco2)c(C(=O)C2CCOCC2)s1)c1cccc(Cl)c1` [Compound 375, 3-Chloro-N-[4-(2-furyl)-5-(tetrahydropyran-4-ylcarbonyl)-thiazol-2-yl]benzamide] is 210 to 212 °C; for `N#Cc1ccccc1C(=O)Nc1nc(-c2ccco2)c(C(=O)C2CCOCC2)s1` [Compound 377, 2-Cyano-N-[4-(2-furyl)-5-(tetrahydropyran-4-ylcarbonyl)-thiazol-2-yl]benzamide] it is 221 to 224 °C; for `N#Cc1cccc(C(=O)Nc2nc(-c3ccco3)c(C(=O)C3CCOCC3)s2)c1` [Compound 378, 3-Cyano-N-[4-(2-furyl)-5-(tetrahydropyran-4-ylcarbonyl)-thiazol-2-yl]benzamide] it is 257 to 260 °C. For the compound `N#Cc1ccc(C(=O)Nc2nc(-c3ccco3)c(C(=O)C3CCOCC3)s2)cc1` [Compound 379, 4-Cyano-N-[4-(2-furyl)-5-(tetrahydropyran-4-ylcarbonyl)-thiazol-2-yl]benzamide], the melting point fell in the range of 231 to 234 °C. Turning to `O=C(Nc1nc(-c2ccco2)c(C(=O)C2CCOCC2)s1)c1ccccc1OC(F)(F)F` [Compound 380, N-[4-(2-Furyl)-5-(tetrahydropyran-4-ylcarbonyl)thiazol-2-yl]-2-(trifluoromethoxy)benzamide], the melting point fell in the range of 131 to 134 °C.

In the case of `O=C(Nc1nc(-c2ccco2)c(C(=O)C2CCOCC2)s1)c1cccc(OC(F)(F)F)c1` [Compound 381, N-[4-(2-Furyl)-5-(tetrahydropyran-4-ylcarbonyl)thiazol-2-yl]-3-(trifluoromethoxy)benzamide], the melting point is 197 to 198 °C. Then `O=C(Nc1nc(-c2ccco2)c(C(=O)C2CCOCC2)s1)c1ccc(OC(F)(F)F)cc1` [Compound 382, N-[4-(2-Furyl)-5-(tetrahydropyran-4-ylcarbonyl)thiazol-2-yl]-4-(trifluoromethoxy)benzamide], with 177 to 180 °C; and `CN(C)Cc1ccc(C(=O)Nc2nc(-c3ccco3)c(C(=O)C3CCOCC3)s2)cc1` [Compound 384, 4-(Dimethylaminomethyl)-N-[4-(2-furyl)-5-(tetrahydropyran-4-ylcarbonyl)thiazol-2-yl]benzamide], with 109 to 112 °C; and `O=C(Nc1nc(-c2ccco2)c(C(=O)C2CCOCC2)s1)c1ccc(CN2CCCCC2)cc1` [Compound 385, N-[4-(2-Furyl)-5-(tetrahydropyran-4-ylcarbonyl)thiazol-2-yl]-4-(piperidinomethyl)benzamide], with 160 to 162 °C. With `O=C(Nc1nc(-c2ccco2)c(C(=O)C2CCOCC2)s1)c1ccc(CN2CCC(O)CC2)cc1` [Compound 386, N-[4-(2-Furyl)-5-(tetrahydropyran-4-ylcarbonyl)thiazol-2-yl]-4-(4-hydroxypiperidinomethyl)benzamide], the melting point was 194 to 195 °C. `O=C(Nc1nc(-c2ccco2)c(C(=O)C2CCOCC2)s1)c1ccc(CN2CCOCC2)cc1` [Compound 387, N-[4-(2-Furyl)-5-(tetrahydropyran-4-ylcarbonyl)thiazol-2-yl]-4-(morpholinomethyl)benzamide] displayed a melting point of 92 to 96 °C.

Consider `COc1cccc(C(=O)Nc2nc(-c3ccco3)c(C(=O)C3CCOCC3)s2)c1OC` [Compound 388, N-[4-(2-Furyl)-5-(tetrahydropyran-4-ylcarbonyl)thiazol-2-yl]-2,3-dimethoxybenzamide], for which the melting point was 198 to 200 °C. Compound `COc1ccc(C(=O)Nc2nc(-c3ccco3)c(C(=O)C3CCOCC3)s2)c(OC)c1` [Compound 389, N-[4-(2-Furyl)-5-(tetrahydropyran-4-ylcarbonyl)thiazol-2-yl]-2,4-dimethoxybenzamide] displayed a melting point of 219 to 222 °C. The compound `COc1ccc(OC)c(C(=O)Nc2nc(-c3ccco3)c(C(=O)C3CCOCC3)s2)c1` [Compound 390, N-[4-(2-Furyl)-5-(tetrahydropyran-4-ylcarbonyl)thiazol-2-yl]-2,5-dimethoxybenzamide] yielded a melting point of 107 to 110 °C. Then `COc1cccc(OC)c1C(=O)Nc1nc(-c2ccco2)c(C(=O)C2CCOCC2)s1` [Compound 391, N-[4-(2-Furyl)-5-(tetrahydropyran-4-ylcarbonyl)thiazol-2-yl]-2,6-dimethoxybenzamide], with 152 to 156 °C; and `COc1ccc(C(=O)Nc2nc(-c3ccco3)c(C(=O)C3CCOCC3)s2)cc1OC` [Compound 392, N-[4-(2-Furyl)-5-(tetrahydropyran-4-ylcarbonyl)thiazol-2-yl]-3,4-dimethoxybenzamide], with 289 to 292 °C; and `COc1cc(OC)cc(C(=O)Nc2nc(-c3ccco3)c(C(=O)C3CCOCC3)s2)c1` [Compound 393, N-[4-(2-Furyl)-5-(tetrahydropyran-4-ylcarbonyl)thiazol-2-yl]-3,5-dimethoxybenzamide], with 278 to 280 °C.

Compound `O=C(Nc1nc(-c2ccco2)c(C(=O)C2CCOCC2)s1)c1cccc(F)c1F` [Compound 394, 2,3-Difluoro-N-[4-(2-furyl)-5-(tetrahydropyran-4-ylcarbonyl)thiazol-2-yl]benzamide] registered a melting point of 154 to 160 °C.

Consider `O=C(Nc1nc(-c2ccco2)c(C(=O)C2CCOCC2)s1)c1ccc(F)cc1F` [Compound 395, 2,4-Difluoro-N-[4-(2-furyl)-5-(tetrahydropyran-4-ylcarbonyl)thiazol-2-yl]benzamide], for which the melting point lay in the range of 213 to 215 °C. `O=C(Nc1nc(-c2ccco2)c(C(=O)C2CCOCC2)s1)c1cc(F)ccc1F` [Compound 396, 2,5-Difluoro-N-[4-(2-furyl)-5-(tetrahydropyran-4-ylcarbonyl)thiazol-2-yl]benzamide]: the melting point is 172 to 174 °C. As for `O=C(Nc1nc(-c2ccco2)c(C(=O)C2CCOCC2)s1)c1c(F)cccc1F` [Compound 397, 2,6-Difluoro-N-[4-(2-furyl)-5-(tetrahydropyran-4-ylcarbonyl)thiazol-2-yl]benzamide], the melting point lay within 168 to 170 °C. Then `O=C(Nc1nc(-c2ccco2)c(C(=O)C2CCOCC2)s1)c1ccc(F)c(F)c1` [Compound 398, 3,4-Difluoro-N-[4-(2-furyl)-5-(tetrahydropyran-4-ylcarbonyl)thiazol-2-yl]benzamide], with 208 to 210 °C; and `O=C(Nc1nc(-c2ccco2)c(C(=O)C2CCOCC2)s1)c1cc(F)cc(F)c1` [Compound 399, 3,5-Difluoro-N-[4-(2-furyl)-5-(tetrahydropyran-4-ylcarbonyl)thiazol-2-yl]benzamide], with 259 to 265 °C. As for `O=C(Nc1nc(-c2ccco2)c(C(=O)C2CCOCC2)s1)c1cccc2c1OCCO2` [Compound 400, N-[4-(2-Furyl)-5-(tetrahydropyran-4-ylcarbonyl)thiazol-2-yl]-1,4-benzodioxane-5-carboxamide], the melting point lay in the range of 188 to 190 °C. `O=C(Nc1nc(-c2ccco2)c(C(=O)C2CCOCC2)s1)c1ccc2c(c1)OCO2` [Compound 401, N-[4-(2-Furyl)-5-(tetrahydropyran-4-ylcarbonyl)thiazol-2-yl]-1,3-benzodioxol-5-carboxamide] displayed a melting point of 194 to 196 °C. Compound `O=C(Nc1nc(-c2ccco2)c(C(=O)C2CCOCC2)s1)c1cccc2c1OC(F)(F)O2` [Compound 402, 2,2-Difluoro-N-[4-(2-furyl)-5-(tetrahydropyran-4-ylcarbonyl)thiazol-2-yl]-1,3-benzodioxol-4-carboxamide] came in with a melting point of 206 to 207 °C.

The values are drawn from patent publication US7928098B2, “Therapeutic and/or preventive agents for a sleep disorder” (Kyowa Hakko Kirin Co., Ltd., priority 2005, dated 2011).
